Measurements from US9987278B2, “Pharmaceutical composition for treating FLT3 mutation-positive cancer, mutant FLT3 inhibitor and uses thereof” (FUJIFILM Corporation, priority 2014, dated 2018).
Like-named read-outs stand apart in the source and are kept apart here.

Assays:
[1] = biological target: mutant FLT3 protein (FLT3 D835Y) (Homo sapiens (Human), UniProt P36888, D835Y); assay: Mutant FLT3 (FLT3 D835Y) enzyme inhibition assay; type: biochemical; settings: ATP 15 μmol/L, read-out: IC50 value for an enzymatic activity of a mutant FLT3 protein
32D FLT3/FL cells = assay: Cell growth assay, FLT3/FLT3 ligand-coexpressing 32D cell line; type: cell-based; settings: Mus musculus, 48 h, read-out: GI50 value for growth of FLT3 protein-expressing 32D cells
Description: RPMI1640 and DMEM were purchased from Life Technologies or SIGMA. The 32D cells were obtained from RIKEN Bioresource Center, and cultured in the presence of 5% CO2 at 37° C. using an RPMI1640 medium containing 1 ng/mL mouse IL-3, 10% fetal bovine serum (FBS), 100 U/mL penicillin and […] streptomycin. The PLAT-E cells were kindly provided by Dr. Kitamura Toshio of Tokyo University and cultured in a DMEM medium containing 1 μg/mL puromycin, 10 μg/mL blasticidin S, 10% FBS, 100 U/mL penicillin and […] streptomycin. […] A pGEM-T vector, FuGENE6 and CellTiter 96 AQueous One Solution Cell Proliferation Assay were purchased from Promega Corporation.
(§1) Individual cells were seeded onto a 96-well plate (Becton, Dickinson and Company) at a density of 1000 to 10000 cells/well, and the cell culture was started at 37° C. in the presence of 5% CO2. On the next day, the compound diluted in 3-fold common ratio was added to each well, followed by further culturing for 2 days. Then, in order to evaluate the cell viability, a CellTiter 96 AQueous One SolutionReagent was added to each well according to the Promega Corporation's protocol, followed by culturing for 1 hour. […] In a case where the absorbance is insufficient, the absorbance was measured after performing the culturing for another 1 to 2 hours.

32D FLT3 D835Y cells = assay: Cell growth assay, 32D FLT3 D835Y; type: cell-based; settings: Mus musculus, 48 h, read-out: GI50 value for growth of FLT3 protein-expressing 32D cells
Description: (§2) After the virus-containing culture supernatant was added to the mouse hematopoietic precursor cell line 32D cells in the presence of 10 μg/mL polybrene, and the cells were cultured in the presence of 0.5 ng/mL mouse IL-3.
as §1

32D FLT3 D835V cells = assay: Cell growth assay, 32D FLT3 D835V; type: cell-based; settings: Mus musculus, 48 h, read-out: GI50 value for growth of FLT3 protein-expressing 32D cells
Description: as §2, §1

32D FLT3 D835H cells = assay: Cell growth assay, 32D FLT3 D835H; type: cell-based; settings: Mus musculus, 48 h, read-out: GI50 value for growth of FLT3 protein-expressing 32D cells
Description: as §2, §1

32D FLT3 D835E cells = assay: Cell growth assay, 32D FLT3 D835E; type: cell-based; settings: Mus musculus, 48 h, read-out: GI50 value for growth of FLT3 protein-expressing 32D cells
Description: as §2, §1

32D FLT3 D835N cells = assay: Cell growth assay, 32D FLT3 D835N; type: cell-based; settings: Mus musculus, 48 h, read-out: GI50 value for growth of FLT3 protein-expressing 32D cells
Description: as §2, §1

32D FLT3 D835Ins cells = assay: Cell growth assay, 32D FLT3 D835Ins; type: cell-based; settings: Mus musculus, 48 h, read-out: GI50 value for growth of FLT3 protein-expressing 32D cells
Description: as §2, §1

32D FLT3 Y842C cells = assay: Cell growth assay, 32D FLT3 Y842C; type: cell-based; settings: Mus musculus, 48 h, read-out: GI50 value for growth of FLT3 protein-expressing 32D cells
Description: as §2, §1

32D FLT3 Y842H cells = assay: Cell growth assay, 32D FLT3 Y842H; type: cell-based; settings: Mus musculus, 48 h, read-out: GI50 value for growth of FLT3 protein-expressing 32D cells
Description: as §2, §1

[2] = FLT3 D835Y, 2 days with compound
[3] = FLT3 D835V, 2 days with compound
[4] = FLT3 D835H, 2 days with compound
[5] = FLT3 D835E, 2 days with compound
[6] = FLT3 D835N, 2 days with compound
[7] = FLT3 D835Ins (I836 to leucine and aspartic acid), 2 days with compound
[8] = FLT3 Y842C, 2 days with compound
[9] = FLT3 Y842H, 2 days with compound

IC50 [1] | Structure (SMILES) | further results
< 1 nM | C[C@@H](C(=O)N[C@H]1C[C@@H](C#Cc2cnc(Nc3ccc(F)cc3)nc2NC2CC2)C1)N(C)C(=O)/C=C/CN(C)C [Compound 40] | GI50 (32D FLT3/FL cells; FLT3/FL, 2 days with compound): < 1 nM; GI50 (32D FLT3 D835Y cells; [2]): < 1 nM; GI50 (32D FLT3 D835V cells; [3]): < 1 nM; GI50 (32D FLT3 D835H cells; [4]): 1 to 10 nM; GI50 (32D FLT3 D835E cells; [5]): < 1 nM; GI50 (32D FLT3 D835N cells; [6]): < 1 nM; GI50 (32D FLT3 D835Ins cells; [7]): < 1 nM; GI50 (32D FLT3 Y842C cells; [8]): 1 to 10 nM; GI50 (32D FLT3 Y842H cells; [9]): 1 to 10 nM
< 1 nM | CCCNc1nc(NCCc2ccncc2)ncc1C(=O)Nc1cccc(NC(=O)[C@H](C)NC(=O)/C=C/CN(C)C)c1 [Compound 24] | 
< 1 nM | C=CC(=O)N(C)CC(=O)Nc1cccc(NC(=O)c2cnc(NCCc3ccncc3)nc2NCCC)c1 [Compound 10] | 
< 1 nM | CCCNc1nc(NCCc2ccncc2)ncc1C(=O)Nc1ccc(C)c(NC(=O)CNC(=O)/C=C/CN(C)C)c1 [Compound 22] | 
1 to 10 nM | C=CC(=O)NCC(=O)Nc1cc(Cl)cc(NC(=O)c2cnc(NCCc3ccncc3)nc2NCCC)c1 [Compound 4] | 
< 1 nM | CCCNc1nc(NCCc2ccncc2)ncc1C(=O)NCCCNC(=O)CNC(=O)/C=C/CN(C)C [Compound 23] | 
< 1 nM | C=CC(=O)NCC(=O)NC(CC)CCNC(=O)c1cnc(NCCc2ccncc2)nc1NCCC (stereo not shown) [Compound 17] | 
< 1 nM | CCCNc1nc(NCCc2ccncc2)ncc1C(=O)Nc1cccc(NC(=O)CNC(=O)/C=C/CN2CCN(CCO)CC2)c1 [Compound 14] | 
< 1 nM | CCCNc1nc(Nc2ccc(C(N)=O)cc2)ncc1C(=O)Nc1cccc(NC(=O)[C@H](C)N(C)C(=O)/C=C/CN(C)C)c1 [Compound 27] | 
1 to 10 nM | CCCNc1nc(NCCc2ccncc2)ncc1C(=O)Nc1cccc(NC(=O)CNC(=O)/C=C/CN2CCOCC2)c1 [Compound 13] | 
< 1 nM | CCCNc1nc(NCCc2ccncc2)ncc1C(=O)NCCC(CC)NC(=O)CNC(=O)/C=C/CN(C)C (stereo not shown) [Compound 18] | 
< 1 nM | CCCNc1nc(Nc2ccc(C(N)=O)cc2)ncc1C#Cc1cccc(NC(=O)[C@H](C)N(C)C(=O)/C=C/CN(C)C)c1 [Compound 29] | 
1 to 10 nM | C=CC(=O)NCC(=O)Nc1ccccc1CNC(=O)c1cnc(NCCc2ccncc2)nc1NCCC [Compound 3] | 
< 1 nM | CCCNc1nc(Nc2ccc(C(N)=O)cc2)ncc1C(=O)NCCCNC(=O)[C@H](C)N(C)C(=O)/C=C/CN(C)C [Compound 25] | 
< 1 nM | CCCNc1nc(NCCc2ccncc2)ncc1C(=O)NCCC(CC)NC(=O)CN(C)C(=O)/C=C/CN(C)C (stereo not shown) [Compound 20] | 
< 1 nM | CNc1nc(Nc2ccc(F)cc2)ncc1C#C[C@H]1C[C@@H](NC(=O)[C@H](C)N(C)C(=O)/C=C/CN(C)C)C1 [Compound 41] | GI50 (32D FLT3/FL cells; FLT3/FL, 2 days with compound): < 1 nM; GI50 (32D FLT3 D835Y cells; [2]): 1 to 10 nM; GI50 (32D FLT3 D835V cells; [3]): 1 to 10 nM; GI50 (32D FLT3 D835H cells; [4]): 1 to 10 nM; GI50 (32D FLT3 D835E cells; [5]): 1 to 10 nM; GI50 (32D FLT3 D835N cells; [6]): 1 to 10 nM; GI50 (32D FLT3 D835Ins cells; [7]): 1 to 10 nM; GI50 (32D FLT3 Y842C cells; [8]): 1 to 10 nM; GI50 (32D FLT3 Y842H cells; [9]): 1 to 10 nM
< 1 nM | CCCNc1nc(Nc2ccc3cnccc3c2)ncc1C(=O)Nc1cccc(NC(=O)[C@H](C)N(C)C(=O)/C=C/CN(C)C)c1 [Compound 28] | 
< 1 nM | C=CC(=O)NC(C)(C)C(=O)Nc1cccc(NC(=O)c2cnc(NCCc3ccncc3)nc2NCCC)c1 [Compound 9] | 
< 1 nM | CCCNc1nc(NCCc2ccncc2)ncc1C(=O)Nc1cccc(NC(=O)CNC(=O)/C=C/CN(C)C)c1 [Compound 5] | 
1 to 10 nM | C=CC(=O)NCC(=O)Nc1cccc(CNC(=O)c2cnc(NCCc3ccncc3)nc2NCCC)c1 [Compound 1] | 

IC50 [1] | Structure (SMILES) | further results
< 1 nM | C=CC(=O)N(C)CC(=O)NC(CC)CCNC(=O)c1cnc(NCCc2ccncc2)nc1NCCC (stereo not shown) [Compound 19] | 
1 to 10 nM | C=CC(=O)NCC(=O)N(C)c1cccc(NC(=O)c2cnc(NCCc3ccncc3)nc2NCCC)c1 [Compound 11] | 
< 1 nM | CCCNc1nc(NCCc2ccncc2)ncc1C(=O)Nc1cccc(NC(=O)CNC(=O)/C=C/CN2CC(C)NC(C)C2)c1 (stereo not shown) [Compound 21] | 
< 1 nM | CCCNc1nc(NCCc2ccncc2)ncc1C#Cc1cccc(NC(=O)[C@H](C)N(C)C(=O)/C=C/CN(C)C)c1 [Compound 35] | 
1 to 10 nM | C=CC(=O)N[C@H](C)C(=O)Nc1cccc(NC(=O)c2cnc(NCCc3ccncc3)nc2NCCC)c1 [Compound 8] | 
< 1 nM | CCCNc1nc(NCCc2ccncc2)ncc1C(=O)Nc1cccc(NC(=O)[C@H](C)N(C)C(=O)/C=C/CN(C)C)c1 [Compound 30] | 
1 to 10 nM | CCCNc1nc(Nc2cccc(C#N)c2)ncc1C#CCCCNC(=O)[C@H](C)N(C)C(=O)/C=C/CN(C)C [Compound 33] | 
1 to 10 nM | C=CC(=O)NCCNc1cccc(NC(=O)c2cnc(NCCc3ccncc3)nc2NCCC)c1 [Compound 15] | 
< 1 nM | C=CC(=O)NCC(=O)NCCCNC(=O)c1cnc(NCCc2ccncc2)nc1NCCC [Compound 7] | 
< 1 nM | C=CC(=O)N[C@@H](C)C(=O)Nc1cccc(NC(=O)c2cnc(NCCc3ccncc3)nc2NCCC)c1 [Compound 16] | 
1 to 10 nM | CCCNc1nc(Nc2ccc(C(N)=O)cc2)ncc1C#Cc1cccc(NCCNC(=O)/C=C/CN(C)C)c1 [Compound 31] | 
< 1 nM | CCCNc1nc(Nc2ccc(C(N)=O)cc2)ncc1C(=O)Nc1cccc(NC(=O)[C@H](C)N(C)C(=O)/C=C/CN2CC(O)C2)c1 [Compound 32] | 
< 1 nM | CCCNc1nc(Nc2ccc(C(N)=O)cc2)ncc1C(=O)NC1CCCC(NC(=O)CN(C)C(=O)/C=C/CN(C)C)C1 (stereo not shown) [Compound 26] | 
< 1 nM | CCCNc1nc(Nc2cccc(F)c2)ncc1C#CCCCNC(=O)[C@H](C)N(C)C(=O)/C=C/CN(C)C [Compound 34] | 
< 1 nM | C[C@@H](C(=O)Nc1cccc(C#Cc2cnc(NCCc3ccncc3)nc2N2CCOCC2)c1)N(C)C(=O)/C=C/CN(C)C [Compound 36] | 
< 1 nM | CCCN(C)c1nc(NCCc2ccncc2)ncc1C#Cc1cccc(NC(=O)[C@H](C)N(C)C(=O)/C=C/CN(C)C)c1 [Compound 37] | 
1 to 10 nM | CCCNc1nc(NCCc2ccncc2)ncc1C(=O)Nc1cccc(NC(=O)CNC(=O)/C=C/CN2CCN(C)CC2)c1 [Compound 12] | 
1 to 10 nM | C=CC(=O)NCCOc1cccc(NC(=O)c2cnc(NCCc3ccncc3)nc2NCCC)c1 [Compound 6] | 
 | CNC(=O)c1cc(Oc2ccc(NC(=O)Nc3ccc(Cl)c(C(F)(F)F)c3)cc2)ccn1 [Reference Compound 2, Sorafenib, reference compound] | GI50 (32D FLT3/FL cells): 10 to 100 nM; GI50 (32D FLT3 D835Y cells): > 100 nM; GI50 (32D FLT3 D835V cells): > 100 nM; GI50 (32D FLT3 D835H cells): > 100 nM; GI50 (32D FLT3 D835E cells): 10 to 100 nM; GI50 (32D FLT3 D835N cells): 10 to 100 nM; GI50 (32D FLT3 D835Ins cells): 10 to 100 nM; GI50 (32D FLT3 Y842C cells): > 100 nM; GI50 (32D FLT3 Y842H cells): > 100 nM
< 1 nM | CCCNc1nc(Nc2cccc(F)c2)ncc1C#C[C@H]1C[C@@H](NC(=O)[C@H](C)N(C)C(=O)/C=C/CN(C)C)C1 [Compound 39] | GI50 (32D FLT3/FL cells; FLT3/FL, 2 days with compound): < 1 nM; GI50 (32D FLT3 D835Y cells; [2]): 1 to 10 nM; GI50 (32D FLT3 D835V cells; [3]): 1 to 10 nM; GI50 (32D FLT3 D835H cells; [4]): 1 to 10 nM; GI50 (32D FLT3 D835E cells; [5]): < 1 nM; GI50 (32D FLT3 D835N cells; [6]): < 1 nM; GI50 (32D FLT3 D835Ins cells; [7]): < 1 nM; GI50 (32D FLT3 Y842C cells; [8]): 1 to 10 nM; GI50 (32D FLT3 Y842H cells; [9]): 1 to 10 nM

Structure (SMILES) | IC50 [1] | further results
C=CC(=O)NCC(=O)Nc1cccc(NC(=O)c2cnc(NCCc3ccncc3)nc2NCCC)c1 [Compound 2] | < 1 nM | 
